Experiments:
[1] = biological target: BMP-2-inducible protein kinase (Homo sapiens, UniProt Q9NSY1); assay: Promega NanoBRET (BMP2K)
[2] = biological target: Tyrosine-protein kinase ABL1 (Homo sapiens) (UniProt P00519); assay: activity of Abl(h) at 1.0 µM in the Eurofins Kinase panel; conditions: Compound concentration 1.0 uM
[3] = biological target: Activin receptor type-1B (Homo sapiens) (UniProt P36896); assay: activity of ALK4(h) at 1.0 µM in the Eurofins Kinase panel; conditions: Compound concentration 1.0 uM
[4] = biological target: Bone morphogenetic protein receptor type-1B (Homo sapiens) (UniProt O00238); assay: activity of ALK6(h) at 1.0 µM in the Eurofins Kinase panel; conditions: Compound concentration 1.0 uM
[5] = biological target: Aurora kinase C (Homo sapiens) (UniProt Q9UQB9); assay: activity of Aurora-C(h) at 1.0 µM in the Eurofins Kinase panel; conditions: Compound concentration 1.0 uM
[6] = biological target: Serine/threonine-protein kinase BRSK1 (Homo sapiens) (UniProt Q8TDC3); assay: activity of BrSK1(h) at 1.0 µM in the Eurofins Kinase panel; conditions: Compound concentration 1.0 uM
[7] = biological target: Serine/threonine-protein kinase BRSK2 (Homo sapiens) (UniProt Q8IWQ3); assay: activity of BrSK2(h) at 1.0 µM in the Eurofins Kinase panel; conditions: Compound concentration 1.0 uM
Sequence of Serine/threonine-protein kinase BRSK2 (Homo sapiens) (Q8IWQ3 whole entry): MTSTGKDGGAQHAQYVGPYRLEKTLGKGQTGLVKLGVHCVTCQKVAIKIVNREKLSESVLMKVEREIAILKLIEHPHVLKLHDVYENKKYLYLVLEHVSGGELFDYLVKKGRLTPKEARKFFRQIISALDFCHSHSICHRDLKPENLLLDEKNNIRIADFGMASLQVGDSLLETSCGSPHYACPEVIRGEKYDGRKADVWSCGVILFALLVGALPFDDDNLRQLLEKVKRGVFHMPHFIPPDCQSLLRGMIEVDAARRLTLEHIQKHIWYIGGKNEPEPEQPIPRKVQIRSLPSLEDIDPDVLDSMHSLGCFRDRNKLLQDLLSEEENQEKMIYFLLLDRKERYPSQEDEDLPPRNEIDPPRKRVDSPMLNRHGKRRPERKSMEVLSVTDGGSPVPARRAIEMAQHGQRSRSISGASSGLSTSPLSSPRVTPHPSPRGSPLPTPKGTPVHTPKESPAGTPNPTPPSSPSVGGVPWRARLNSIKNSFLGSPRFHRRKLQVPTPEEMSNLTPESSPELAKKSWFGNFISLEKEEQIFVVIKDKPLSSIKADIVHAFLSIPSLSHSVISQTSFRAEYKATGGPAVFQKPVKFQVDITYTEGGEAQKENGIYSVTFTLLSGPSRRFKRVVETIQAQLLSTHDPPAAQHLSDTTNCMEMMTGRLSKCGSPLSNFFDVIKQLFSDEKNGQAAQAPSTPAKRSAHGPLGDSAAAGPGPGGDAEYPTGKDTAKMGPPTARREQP

[8] = biological target: Cyclin-dependent kinase 2/cyclin E (Homo sapiens) (UniProt P24864+P24941+O96020); assay: activity of CDK2/cyclinE(h) at 1.0 µM in the Eurofins Kinase panel; assay type: protein-complex assay; conditions: Compound concentration 1.0 uM
[9] = biological target: Casein kinase 2 (Homo sapiens) (UniProt P67870+P68400+P19784+Q8NEV1); assay: activity of CK2(h) at 1.0 µM in the Eurofins Kinase panel; assay type: protein assay; conditions: Compound concentration 1.0 uM
[10] = biological target: Discoidin domain-containing receptor 2 (Homo sapiens) (UniProt Q16832); assay: activity of DDR2(h) at 1.0 µM in the Eurofins Kinase panel; conditions: Compound concentration 1.0 uM
[11] = biological target: Dual specificity tyrosine-phosphorylation-regulated kinase 1A (Homo sapiens) (UniProt Q13627); assay: activity of DYRK1A(h) at 1.0 µM in the Eurofins Kinase panel; conditions: Compound concentration 1.0 uM
[12] = biological target: Fibroblast growth factor receptor 4 (Homo sapiens) (UniProt P22455); assay: activity of FGFR4(h) at 1.0 µM in the Eurofins Kinase panel; conditions: Compound concentration 1.0 uM
[13] = biological target: Vascular endothelial growth factor receptor 1 (Homo sapiens) (UniProt P17948); assay: activity of Flt1(h) at 1.0 µM in the Eurofins Kinase panel; conditions: Compound concentration 1.0 uM
Sequence of Vascular endothelial growth factor receptor 1 (Homo sapiens) (P17948 whole entry): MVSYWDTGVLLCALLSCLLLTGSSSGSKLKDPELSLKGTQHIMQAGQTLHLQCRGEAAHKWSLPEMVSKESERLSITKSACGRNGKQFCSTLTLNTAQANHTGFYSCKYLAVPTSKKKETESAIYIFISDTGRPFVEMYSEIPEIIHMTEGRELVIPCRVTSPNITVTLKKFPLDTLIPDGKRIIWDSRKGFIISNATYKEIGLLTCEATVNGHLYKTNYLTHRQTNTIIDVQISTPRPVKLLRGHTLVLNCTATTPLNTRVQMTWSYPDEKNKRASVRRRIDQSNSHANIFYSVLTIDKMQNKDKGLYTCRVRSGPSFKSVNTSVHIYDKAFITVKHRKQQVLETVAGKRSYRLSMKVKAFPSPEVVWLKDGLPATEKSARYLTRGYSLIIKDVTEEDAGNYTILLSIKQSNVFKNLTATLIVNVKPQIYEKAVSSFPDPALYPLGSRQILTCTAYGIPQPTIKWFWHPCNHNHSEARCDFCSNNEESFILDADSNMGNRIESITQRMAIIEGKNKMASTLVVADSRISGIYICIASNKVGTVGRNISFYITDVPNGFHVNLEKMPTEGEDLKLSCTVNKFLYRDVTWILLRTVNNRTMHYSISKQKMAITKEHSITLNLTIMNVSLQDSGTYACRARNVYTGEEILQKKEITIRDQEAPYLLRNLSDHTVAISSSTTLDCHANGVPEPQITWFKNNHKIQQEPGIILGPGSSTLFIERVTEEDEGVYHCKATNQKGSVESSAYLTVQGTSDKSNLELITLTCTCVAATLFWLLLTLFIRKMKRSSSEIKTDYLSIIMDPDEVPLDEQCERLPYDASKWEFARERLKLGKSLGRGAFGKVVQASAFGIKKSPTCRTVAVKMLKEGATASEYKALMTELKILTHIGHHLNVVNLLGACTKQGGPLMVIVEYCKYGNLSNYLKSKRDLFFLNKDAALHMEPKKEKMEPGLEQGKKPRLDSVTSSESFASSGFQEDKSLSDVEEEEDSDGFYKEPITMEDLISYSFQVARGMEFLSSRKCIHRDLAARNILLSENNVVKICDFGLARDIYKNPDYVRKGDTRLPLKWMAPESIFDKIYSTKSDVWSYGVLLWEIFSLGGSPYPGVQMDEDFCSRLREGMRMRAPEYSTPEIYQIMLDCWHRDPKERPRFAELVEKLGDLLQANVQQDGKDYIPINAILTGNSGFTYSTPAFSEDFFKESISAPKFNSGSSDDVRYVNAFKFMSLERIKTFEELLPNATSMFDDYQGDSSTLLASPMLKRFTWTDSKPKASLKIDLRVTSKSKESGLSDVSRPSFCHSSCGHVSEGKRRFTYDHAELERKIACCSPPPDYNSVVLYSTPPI

[14] = biological target: Homeodomain-interacting protein kinase 2 (Homo sapiens) (UniProt Q9H2X6); assay: activity of HIPK2(h) at 1.0 µM in the Eurofins Kinase panel; conditions: Compound concentration 1.0 uM
[15] = biological target: Mitogen-activated protein kinase kinase kinase kinase 5 (Homo sapiens) (UniProt Q9Y4K4); assay: activity of MAP4K5(h) at 1.0 µM in the Eurofins Kinase panel; conditions: Compound concentration 1.0 uM
[16] = biological target: Dual specificity mitogen-activated protein kinase kinase 2 (Homo sapiens) (UniProt P36507); assay: activity of MEK2(h) at 1.0 µM in the Eurofins Kinase panel; conditions: Compound concentration 1.0 uM
[17] = biological target: Hepatocyte growth factor receptor (Homo sapiens) (UniProt P08581); assay: activity of Met(h) at 1.0 µM in the Eurofins Kinase panel; conditions: Compound concentration 1.0 uM
[18] = biological target: Dual specificity mitogen-activated protein kinase kinase 6 (Homo sapiens) (UniProt P52564); assay: activity of MKK6(h) at 1.0 µM in the Eurofins Kinase panel; conditions: Compound concentration 1.0 uM
Sequence of Dual specificity mitogen-activated protein kinase kinase 6 (Homo sapiens) (P52564 whole entry): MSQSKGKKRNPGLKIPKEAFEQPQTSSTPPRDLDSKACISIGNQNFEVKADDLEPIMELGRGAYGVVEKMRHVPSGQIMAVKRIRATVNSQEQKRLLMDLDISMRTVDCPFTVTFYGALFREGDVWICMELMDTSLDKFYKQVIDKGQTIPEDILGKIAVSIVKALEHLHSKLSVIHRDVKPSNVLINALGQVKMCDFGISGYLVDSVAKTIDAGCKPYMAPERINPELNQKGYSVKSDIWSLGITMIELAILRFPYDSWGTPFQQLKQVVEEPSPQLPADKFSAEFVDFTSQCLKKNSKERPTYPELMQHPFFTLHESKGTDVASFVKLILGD

[19] = biological target: Mitogen-activated protein kinase kinase kinase 10 (Homo sapiens) (UniProt Q02779); assay: activity of MLK2(h) at 1.0 µM in the Eurofins Kinase panel; conditions: Compound concentration 1.0 uM
[20] = biological target: MAPK/MAK/MRK overlapping kinase (Homo sapiens) (UniProt Q9UQ07); assay: activity of MOK(h) at 1.0 µM in the Eurofins Kinase panel; conditions: Compound concentration 1.0 uM
[21] = biological target: Ribosomal protein S6 kinase alpha-4 (Homo sapiens) (UniProt O75676); assay: activity of MSK2(h) at 1.0 µM in the Eurofins Kinase panel; conditions: Compound concentration 1.0 uM
Sequence of Ribosomal protein S6 kinase alpha-4 (Homo sapiens) (O75676 whole entry, looked up): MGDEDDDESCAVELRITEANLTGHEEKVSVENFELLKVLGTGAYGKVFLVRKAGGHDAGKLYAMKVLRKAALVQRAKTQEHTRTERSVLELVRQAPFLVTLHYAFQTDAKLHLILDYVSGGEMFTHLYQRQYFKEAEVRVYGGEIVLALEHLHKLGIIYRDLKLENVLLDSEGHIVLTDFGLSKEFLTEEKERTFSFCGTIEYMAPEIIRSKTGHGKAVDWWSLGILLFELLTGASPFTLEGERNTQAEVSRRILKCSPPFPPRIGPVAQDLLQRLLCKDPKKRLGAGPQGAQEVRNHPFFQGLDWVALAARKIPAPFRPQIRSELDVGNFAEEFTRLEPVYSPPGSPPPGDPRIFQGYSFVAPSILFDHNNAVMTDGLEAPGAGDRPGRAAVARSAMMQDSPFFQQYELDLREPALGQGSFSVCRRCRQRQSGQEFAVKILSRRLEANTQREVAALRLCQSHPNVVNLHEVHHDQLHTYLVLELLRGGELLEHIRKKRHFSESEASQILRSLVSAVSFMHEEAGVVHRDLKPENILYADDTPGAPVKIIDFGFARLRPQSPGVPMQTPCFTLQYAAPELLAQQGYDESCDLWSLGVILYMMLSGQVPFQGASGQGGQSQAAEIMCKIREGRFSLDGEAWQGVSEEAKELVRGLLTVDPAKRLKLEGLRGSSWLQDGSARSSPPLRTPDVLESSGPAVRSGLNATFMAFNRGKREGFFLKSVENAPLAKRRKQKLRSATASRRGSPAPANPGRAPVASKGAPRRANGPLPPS

[22] = biological target: SRSF protein kinase 3 (Homo sapiens) (UniProt Q9UPE1); assay: activity of MSSK1(h) at 1.0 µM in the Eurofins Kinase panel; conditions: Compound concentration 1.0 uM
Sequence of SRSF protein kinase 3 (Homo sapiens) (Q9UPE1 whole entry): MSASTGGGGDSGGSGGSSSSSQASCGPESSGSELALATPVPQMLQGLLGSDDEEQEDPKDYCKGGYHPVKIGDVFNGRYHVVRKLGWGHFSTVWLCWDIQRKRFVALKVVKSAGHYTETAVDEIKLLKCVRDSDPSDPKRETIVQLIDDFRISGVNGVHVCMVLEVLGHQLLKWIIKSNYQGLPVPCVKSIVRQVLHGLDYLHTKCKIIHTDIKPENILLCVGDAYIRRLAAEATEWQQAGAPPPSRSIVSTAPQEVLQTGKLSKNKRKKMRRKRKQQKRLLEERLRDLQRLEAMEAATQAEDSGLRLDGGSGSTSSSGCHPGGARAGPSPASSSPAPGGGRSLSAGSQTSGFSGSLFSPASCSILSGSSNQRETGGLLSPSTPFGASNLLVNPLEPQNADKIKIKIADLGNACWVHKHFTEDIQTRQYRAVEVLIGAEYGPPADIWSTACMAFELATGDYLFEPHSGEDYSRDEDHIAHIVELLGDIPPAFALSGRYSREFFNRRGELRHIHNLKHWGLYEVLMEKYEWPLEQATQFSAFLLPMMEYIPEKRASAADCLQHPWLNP

[23] = biological target: Serine/threonine-protein kinase Nek7 (Homo sapiens) (UniProt Q8TDX7); assay: activity of NEK7(h) at 1.0 µM in the Eurofins Kinase panel; conditions: Compound concentration 1.0 uM
[24] = biological target: Serine/threonine-protein kinase PAK 6 (Homo sapiens) (UniProt Q9NQU5); assay: activity of PAK6(h) at 1.0 µM in the Eurofins Kinase panel; conditions: Compound concentration 1.0 uM
[25] = biological target: Serine/threonine-protein kinase MARK2 (Homo sapiens) (UniProt Q7KZI7); assay: activity of PAR-1Balpha(h) at 1.0 µM in the Eurofins Kinase panel; conditions: Compound concentration 1.0 uM
Sequence of Serine/threonine-protein kinase MARK2 (Homo sapiens) (Q7KZI7 whole entry): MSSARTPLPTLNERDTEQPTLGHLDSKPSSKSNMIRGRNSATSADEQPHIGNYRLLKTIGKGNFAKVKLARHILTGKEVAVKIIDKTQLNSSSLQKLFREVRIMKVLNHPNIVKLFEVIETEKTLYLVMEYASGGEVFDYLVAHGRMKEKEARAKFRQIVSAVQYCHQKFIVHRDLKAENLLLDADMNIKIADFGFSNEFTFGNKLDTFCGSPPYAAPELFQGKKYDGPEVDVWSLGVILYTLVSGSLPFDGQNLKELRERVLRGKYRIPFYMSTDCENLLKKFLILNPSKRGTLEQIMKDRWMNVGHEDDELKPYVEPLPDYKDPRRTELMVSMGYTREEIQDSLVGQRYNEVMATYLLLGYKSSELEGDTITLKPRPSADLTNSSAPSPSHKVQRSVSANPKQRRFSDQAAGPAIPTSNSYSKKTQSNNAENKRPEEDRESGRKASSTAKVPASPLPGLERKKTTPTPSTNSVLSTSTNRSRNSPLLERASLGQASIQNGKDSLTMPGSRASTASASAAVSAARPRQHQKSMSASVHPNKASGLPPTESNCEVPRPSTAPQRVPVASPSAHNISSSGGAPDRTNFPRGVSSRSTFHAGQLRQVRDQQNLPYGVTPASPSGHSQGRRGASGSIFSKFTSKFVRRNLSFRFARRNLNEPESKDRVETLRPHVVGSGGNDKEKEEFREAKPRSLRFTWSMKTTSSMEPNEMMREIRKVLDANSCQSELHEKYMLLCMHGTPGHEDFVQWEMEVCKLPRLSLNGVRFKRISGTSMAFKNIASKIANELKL

[26] = biological target: [Pyruvate dehydrogenase (acetyl-transferring)] kinase isozyme 2, mitochondrial (Homo sapiens) (UniProt Q15119); assay: activity of PDHK2(h) at 1.0 µM in the Eurofins Kinase panel; conditions: Compound concentration 1.0 uM
[27] = biological target: Serine/threonine-protein kinase pim-2 (Homo sapiens) (UniProt Q9P1W9); assay: activity of Pim-2(h) at 1.0 µM in the Eurofins Kinase panel; conditions: Compound concentration 1.0 uM
[28] = biological target: Interferon-induced, double-stranded RNA-activated protein kinase (Homo sapiens) (UniProt P19525); assay: activity of PKR(h) at 1.0 µM in the Eurofins Kinase panel; conditions: Compound concentration 1.0 uM
[29] = biological target: MAP kinase-activated protein kinase 5 (Homo sapiens) (UniProt Q8IW41); assay: activity of PRAK(h) at 1.0 µM in the Eurofins Kinase panel; conditions: Compound concentration 1.0 uM
[30] = biological target: Rho-associated protein kinase 2 (Homo sapiens) (UniProt O75116); assay: activity of ROCK-II(h) at 1.0 µM in the Eurofins Kinase panel; conditions: Compound concentration 1.0 uM
[31] = biological target: Serine/threonine-protein kinase SIK3 (Homo sapiens) (UniProt Q9Y2K2); assay: activity of SIK3(h) at 1.0 µM in the Eurofins Kinase panel; conditions: Compound concentration 1.0 uM
[32] = biological target: SNF-related serine/threonine-protein kinase (Homo sapiens) (UniProt Q9NRH2); assay: activity of SNRK(h) at 1.0 µM in the Eurofins Kinase panel; conditions: Compound concentration 1.0 uM
[33] = biological target: Serine/threonine-protein kinase 32A (Homo sapiens) (UniProt Q8WU08); assay: activity of STK32A(h) at 1.0 µM in the Eurofins Kinase panel; conditions: Compound concentration 1.0 uM
[34] = biological target: Serine/threonine-protein kinase 32B (Homo sapiens) (UniProt Q9NY57); assay: activity of STK32B(h) at 1.0 µM in the Eurofins Kinase panel; conditions: Compound concentration 1.0 uM
[35] = biological target: STE20/SPS1-related proline-alanine-rich protein kinase (Homo sapiens) (UniProt Q9UEW8); assay: activity of STK39(h) at 1.0 µM in the Eurofins Kinase panel; conditions: Compound concentration 1.0 uM
[36] = biological target: Serine/threonine-protein kinase tousled-like 1 (Homo sapiens) (UniProt Q9UKI8); assay: activity of TLK1(h) at 1.0 µM in the Eurofins Kinase panel; conditions: Compound concentration 1.0 uM
[37] = biological target: Serine/threonine-protein kinase tousled-like 2 (Homo sapiens) (UniProt Q86UE8); assay: activity of TLK2(h) at 1.0 µM in the Eurofins Kinase panel; conditions: Compound concentration 1.0 uM
[38] = biological target: Testis-specific serine/threonine-protein kinase 3 (Homo sapiens) (UniProt Q96PN8); assay: activity of TSSK3(h) at 1.0 µM in the Eurofins Kinase panel; conditions: Compound concentration 1.0 uM
Sequence of Testis-specific serine/threonine-protein kinase 3 (Homo sapiens) (Q96PN8 whole entry): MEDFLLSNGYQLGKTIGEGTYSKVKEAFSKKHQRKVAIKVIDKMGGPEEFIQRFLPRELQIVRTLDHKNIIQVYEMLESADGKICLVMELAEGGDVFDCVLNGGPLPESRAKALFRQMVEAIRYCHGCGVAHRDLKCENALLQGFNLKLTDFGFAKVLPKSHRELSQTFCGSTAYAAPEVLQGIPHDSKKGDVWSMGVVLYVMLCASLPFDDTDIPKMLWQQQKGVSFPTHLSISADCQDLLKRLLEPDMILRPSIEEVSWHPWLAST

[39] = biological target: Tyrosine-protein kinase TXK (Homo sapiens) (UniProt P42681); assay: activity of Txk(h) at 1.0 µM in the Eurofins Kinase panel; conditions: Compound concentration 1.0 uM

- IC50 [1]: > 10 µM (not active)
- activity [2]: 99%
- activity [3]: 94%
- activity [4]: 74%
- activity [5]: 94%
- activity [6]: 96%
- activity [7]: 83%
- activity [8]: 92%
- activity [9]: 112%
- activity [10]: 85%
- activity [11]: 112%
- activity [12]: 114%
- activity [13]: 125%
- activity [14]: 105%
- activity [15]: 92%
- activity [16]: 92%
- activity [17]: 90%
- activity [18]: 101%
- activity [19]: 77%
- activity [20]: 90%
- activity [21]: 88%
- activity [22]: 134%
- activity [23]: 88%
- activity [24]: 101%
- activity [25]: 88%
- activity [26]: 87%
- activity [27]: 117%
- activity [28]: 85%
- activity [29]: 107%
- activity [30]: 96%
- activity [31]: 105%
- activity [32]: 111%
- activity [33]: 90%
- activity [34]: 115%
- activity [35]: 102%
- activity [36]: 82%
- activity [37]: 92%
- activity [38]: 96%
- activity [39]: 110%
SMILES: Cc1cc2c(-c3ccc(NC(=O)[C@H](N)CC(C)(C)C)cc3C)ccnc2[nH]1
